Earlier results as cited in patent US20190077874A1, “METHODS AND COMPOSITIONS FOR THE TREATMENT OF TUBEROUS SCLEROSIS” (National Tuberous Sclerosis Association, Inc., priority 2017, published 2019).

How the values were obtained:
[1] = test system: refractory partial-onset seizures; settings: patients with refractory partial-onset seizures
TSC patients = settings: previous antiepileptic drugs
[2] = test system: infantile spasms in the setting of TSC
[3] = test system: TSC patients with medically refractory epilepsy and SEGAs; settings: case studies of TSC patients
[4] = most commonly hypertension, immune suppression and infection, electrolyte imbalance etc.
IL-1β = settings: TSC mouse model
CXCL10 = settings: TSC mouse model
TSC mouse model = settings: Zhang et al.

**Q.** With C=CC(N)CCC(=O)O (stereo not drawn) [VGB, vigabatrin] as the molecule, how does the “patients in whom treatment is ineffectual” value [1] read?
**A.** The value was “more than 75%”.

**Q.** What about the “patients in whom the antiepileptic drug failed” value (TSC patients) of the same molecule?
**A.** Its value is 66%.

**Q.** And the “efficacy in treating infantile spasms” value [2]?
**A.** The value was “particularly effective”.

**Q.** Which results are given for CO[C@H]1C[C@@H]2CC[C@@H](C)[C@@](O)(O2)C(=O)C(=O)N2CCCC[C@H]2C(=O)O[C@H]([C@H](C)C[C@@H]2CC[C@@H](OCCO)[C@H](OC)C2)CC(=O)[C@H](C)/C=C(\C)[C@@H](O)[C@@H](OC)C(=O)[C@H](C)C[C@H](C)/C=C/C=C/C=C/1C [everolimus]?
**A.** SEGA size [3]: dramatic reduction; seizure frequency [3]: dramatic reduction

**Q.** With CC[C@@H](C(N)=O)N1CCCC1=O [levetiracetam] as the molecule, how does the “patients in whom the antiepileptic drug failed” value (TSC patients) read?
**A.** The value was 67%.

**Q.** With CC1(C)O[C@@H]2[C@@H](CO[C@@]3(COS(N)(=O)=O)OC(C)(C)O[C@@H]23)O1 [topiramate] as the molecule, how does the “patients in whom the antiepileptic drug failed” value (TSC patients) read?
**A.** Its value is 58%.

**Q.** For “adrenocorticotropic hormone (SYSMEHFRWGKPVGKKRRPVKVYPNGAEDESAEAFPLEF; Corticotropin; UniProt P01189 138-176, looked up) [ACTH, mainstay therapy for the treatment of seizures in TSC patients]”, which “treated patients with adverse effects” value [4] is on record?
**A.** Its value is “up to 85%”.

**Q.** Which results are given for epicatechin-3-gallate?
**A.** increased production of IL-1β (IL-1β): reverse the increased production; increased production of CXCL10 (CXCL10): reverse the increased production; seizures (TSC mouse model): reduced seizures; survival (TSC mouse model): improved survival
